“And” between values parts separate entries of the source, which are not always exact repeats. Equal values may be shown once.
Assay: In vitro release testing (IVRT), static vertical diffusion cell, synthetic membrane, UV-VIS analysis
Type: physicochemical
Conditions: for amount of xylene cyanol released into the water phase / release of Xylene Cyanol into the receptor fluid: ointment
Experimental: In Vitro Release Testing Method.
Release of pharmaceutically active compounds from semi-solid dosage forms was evaluated in an in vitro model of static vertical diffusion cell using a synthetic membrane model. […] The samples were analyzed using a UV-VIS spectrometer. […]
Test time points: 0, 2, 4, 6, 8, and 10 hours. Each test was conducted in four replicates (N=4). Square root of test time points: 0, 1.41, 2.00, 2.45, 2.83, and 3.16.
Membrane: Polypropylene (pore size: 0.45 micron).
Static vertical diffusion cell parameters: Area of the membrane diffusion area: 0.95 square centimeters.
Dosing level: infinite dose at about 3.0 milliliter of the semi-solid dosage form.
Static vertical diffusion cell consists of a donor and receptor compartment separated by a synthetic membrane. The dosing compartment was for the dosed semi-solid dosage form. […] Before dosing, the diffusion cell was pre-incubated at 32° C. for about 20 to 45 minutes. The t=0 samples were taken after the incubation period prior to dosing.
During the experiment, the receptor fluid was in intimate contact with the membrane through a mixing mechanism, such as, e.g., magnetic stirring bar, or orbit shaker, and maintained at 32° C. using a heating mechanism, such as, e.g., dry heat block, or circulating water bath. At each time point, entire content of the receptor fluid was collected and replaced with a fresh batch pre-incubated at 32° C.
An ointment dosage form was prepared as an example of the semi-solid dosage form. Petrolatum was heated to about 50 to 70° C. while mixing. Xylene Cyanol was added to the heated petrolatum while heating and mixing. The mixture was mixed until uniform. Then, the mixture was slowly cooled to room temperature while mixing to yield the ointment formulation.

## CCN=C1C=CC(=C(c2ccc(NCC)c(C)c2)c2ccc(S(=O)(=O)[O-])cc2S(=O)(=O)O)C=C1C.[Na+] [Xylene Cyanol]
0.5% Xylene Cyanol in Petrolatum, infinite dose, biphasic receptor fluid: 1-Octanol:H2O 1:1 v:v, square root of time (hr) 0.00 (0 h, prior to dosing)
  amount of xylene cyanol released: 0.0000 mcg/cm2
0.5% Xylene Cyanol in Petrolatum, infinite dose, biphasic receptor fluid: 1-Octanol:H2O 1:1 v:v, square root of time (hr) 2.00 (4 h)
  amount of xylene cyanol released: 1.2143 mcg/cm2 and 1.9575 mcg/cm2 and 1.4206 mcg/cm2 and 1.4438 mcg/cm2
0.5% Xylene Cyanol in Petrolatum, infinite dose, biphasic receptor fluid: 1-Octanol:H2O 1:1 v:v, square root of time (hr) 2.45 (6 h)
  amount of xylene cyanol released: 2.2025 mcg/cm2 and 3.0973 mcg/cm2 and 2.5204 mcg/cm2 and 2.5436 mcg/cm2
0.5% Xylene Cyanol in Petrolatum, infinite dose, biphasic receptor fluid: 1-Octanol:H2O 1:1 v:v, square root of time (hr) 2.83 (8 h)
  amount of xylene cyanol released: 3.1044 mcg/cm2 and 4.1192 mcg/cm2 and 3.3865 mcg/cm2 and 3.7213 mcg/cm2
0.5% Xylene Cyanol in Petrolatum, infinite dose, biphasic receptor fluid: 1-Octanol:H2O 1:1 v:v, square root of time (hr) 3.16 (10 h)
  amount of xylene cyanol released: 3.8674 mcg/cm2 and 4.8589 mcg/cm2 and 4.2884 mcg/cm2 and 4.5853 mcg/cm2
0.5% Xylene Cyanol in Petrolatum, infinite dose, biphasic receptor fluid: 1-Octanol:PBS Buffer pH 7.4 1:1 v:v, square root of time 0.00 (0 h, prior to dosing)
  amount of xylene cyanol released: 0.0000 mcg/cm2
0.5% Xylene Cyanol in Petrolatum, infinite dose, biphasic receptor fluid: 1-Octanol:PBS Buffer pH 7.4 1:1 v:v, square root of time 2.00 (4 h)
  amount of xylene cyanol released: 0.3389 mcg/cm2 and 0.4105 mcg/cm2 and 0.5179 mcg/cm2 and 0.4295 mcg/cm2
0.5% Xylene Cyanol in Petrolatum, infinite dose, biphasic receptor fluid: 1-Octanol:PBS Buffer pH 7.4 1:1 v:v, square root of time 2.45 (6 h)
  amount of xylene cyanol released: 1.2295 mcg/cm2 and 1.3179 mcg/cm2 and 0.8863 mcg/cm2 and 0.9032 mcg/cm2
0.5% Xylene Cyanol in Petrolatum, infinite dose, biphasic receptor fluid: 1-Octanol:PBS Buffer pH 7.4 1:1 v:v, square root of time 2.83 (8 h)
  amount of xylene cyanol released: 1.3579 mcg/cm2 and 1.8147 mcg/cm2 and 1.4400 mcg/cm2 and 1.5937 mcg/cm2
0.5% Xylene Cyanol in Petrolatum, infinite dose, biphasic receptor fluid: 1-Octanol:PBS Buffer pH 7.4 1:1 v:v, square root of time 3.16 (10 h)
  amount of xylene cyanol released: 1.8884 mcg/cm2 and 2.4316 mcg/cm2 and 1.7305 mcg/cm2 and 1.9768 mcg/cm2
0.5% Xylene Cyanol in Petrolatum, infinite dose, receptor fluid: 1-Octanol:H2O 1:1 v:v, N=4 runs
  Slope - Average: 2.2026 mcg/cm2/h^0.5
0.5% Xylene Cyanol in Petrolatum, infinite dose, receptor fluid: 1-Octanol:PBS Buffer pH 7.4 1:1 v:v
  Slope - Average: 1.0412 mcg/cm2/h^0.5
0.5% Xylene Cyanol in Petrolatum, infinite dose, receptor fluid: 1-Octanol, square root of time (hr) 0.00 (0 h, prior to dosing)
  amount of xylene cyanol released: BDL
0.5% Xylene Cyanol in Petrolatum, infinite dose, receptor fluid: 1-Octanol, square root of time (hr) 1.41 (2 h)
  amount of xylene cyanol released: BDL
0.5% Xylene Cyanol in Petrolatum, infinite dose, receptor fluid: 1-Octanol, square root of time (hr) 2.00 (4 h)
  amount of xylene cyanol released: BDL
0.5% Xylene Cyanol in Petrolatum, infinite dose, receptor fluid: 1-Octanol, square root of time (hr) 2.45 (6 h)
  amount of xylene cyanol released: BDL
0.5% Xylene Cyanol in Petrolatum, infinite dose, receptor fluid: 1-Octanol, square root of time (hr) 2.83 (8 h)
  amount of xylene cyanol released: BDL
0.5% Xylene Cyanol in Petrolatum, infinite dose, receptor fluid: 1-Octanol, square root of time (hr) 3.16 (10 h)
  amount of xylene cyanol released: BDL
0.5% Xylene Cyanol in Petrolatum, infinite dose, receptor fluid: 1-octanol:ethanol 50:50 v:v, square root of time (hr) 0.00 (0 h, prior to dosing)
  amount of xylene cyanol released: BDL
0.5% Xylene Cyanol in Petrolatum, infinite dose, receptor fluid: 1-octanol:ethanol 50:50 v:v, square root of time (hr) 1.41 (2 h)
  amount of xylene cyanol released: BDL
0.5% Xylene Cyanol in Petrolatum, infinite dose, receptor fluid: 1-octanol:ethanol 50:50 v:v, square root of time (hr) 2.00 (4 h)
  amount of xylene cyanol released: BDL
0.5% Xylene Cyanol in Petrolatum, infinite dose, receptor fluid: 1-octanol:ethanol 50:50 v:v, square root of time (hr) 2.45 (6 h)
  amount of xylene cyanol released: BDL
0.5% Xylene Cyanol in Petrolatum, infinite dose, receptor fluid: 1-octanol:ethanol 50:50 v:v, square root of time (hr) 2.83 (8 h)
  amount of xylene cyanol released: BDL
0.5% Xylene Cyanol in Petrolatum, infinite dose, receptor fluid: 1-octanol:ethanol 50:50 v:v, square root of time (hr) 3.16 (10 h)
  amount of xylene cyanol released: BDL
0.5% Xylene Cyanol in Petrolatum, infinite dose, receptor fluid: Isopropyl alcohol:water 50:50 v:v, square root of time (hr) 0.00 (0 h, prior to dosing)
  amount of xylene cyanol released: BDL
0.5% Xylene Cyanol in Petrolatum, infinite dose, receptor fluid: Isopropyl alcohol:water 50:50 v:v, square root of time (hr) 1.41 (2 h)
  amount of xylene cyanol released: BDL
0.5% Xylene Cyanol in Petrolatum, infinite dose, receptor fluid: Isopropyl alcohol:water 50:50 v:v, square root of time (hr) 2.00 (4 h)
  amount of xylene cyanol released: BDL
0.5% Xylene Cyanol in Petrolatum, infinite dose, receptor fluid: Isopropyl alcohol:water 50:50 v:v, square root of time (hr) 2.45 (6 h)
  amount of xylene cyanol released: BDL
0.5% Xylene Cyanol in Petrolatum, infinite dose, receptor fluid: Isopropyl alcohol:water 50:50 v:v, square root of time (hr) 2.83 (8 h)
  amount of xylene cyanol released: BDL
0.5% Xylene Cyanol in Petrolatum, infinite dose, receptor fluid: Isopropyl alcohol:water 50:50 v:v, square root of time (hr) 3.16 (10 h)
  amount of xylene cyanol released: BDL
0.5% Xylene Cyanol in Petrolatum, infinite dose, receptor fluid: dimethyl sulfoxide:ethanol 50:50 v:v, square root of time (hr) 0.00 (0 h, prior to dosing)
  amount of xylene cyanol released: BDL
0.5% Xylene Cyanol in Petrolatum, infinite dose, receptor fluid: dimethyl sulfoxide:ethanol 50:50 v:v, square root of time (hr) 1.41 (2 h)
  amount of xylene cyanol released: BDL
0.5% Xylene Cyanol in Petrolatum, infinite dose, receptor fluid: dimethyl sulfoxide:ethanol 50:50 v:v, square root of time (hr) 2.00 (4 h)
  amount of xylene cyanol released: BDL
0.5% Xylene Cyanol in Petrolatum, infinite dose, receptor fluid: dimethyl sulfoxide:ethanol 50:50 v:v, square root of time (hr) 2.45 (6 h)
  amount of xylene cyanol released: BDL
0.5% Xylene Cyanol in Petrolatum, infinite dose, receptor fluid: dimethyl sulfoxide:ethanol 50:50 v:v, square root of time (hr) 2.83 (8 h)
  amount of xylene cyanol released: BDL
0.5% Xylene Cyanol in Petrolatum, infinite dose, receptor fluid: dimethyl sulfoxide:ethanol 50:50 v:v, square root of time (hr) 3.16 (10 h)
  amount of xylene cyanol released: BDL
0.5% Xylene Cyanol in Petrolatum, infinite dose, receptor fluid: dimethyl sulfoxide:isopropyl alcohol:water 30:30:40 v:v:v, square root of time (hr) 0.00 (0 h, prior to dosing)
  amount of xylene cyanol released: BDL
0.5% Xylene Cyanol in Petrolatum, infinite dose, receptor fluid: dimethyl sulfoxide:isopropyl alcohol:water 30:30:40 v:v:v, square root of time (hr) 1.41 (2 h)
  amount of xylene cyanol released: BDL
0.5% Xylene Cyanol in Petrolatum, infinite dose, receptor fluid: dimethyl sulfoxide:isopropyl alcohol:water 30:30:40 v:v:v, square root of time (hr) 2.00 (4 h)
  amount of xylene cyanol released: BDL
0.5% Xylene Cyanol in Petrolatum, infinite dose, receptor fluid: dimethyl sulfoxide:isopropyl alcohol:water 30:30:40 v:v:v, square root of time (hr) 2.45 (6 h)
  amount of xylene cyanol released: BDL
0.5% Xylene Cyanol in Petrolatum, infinite dose, receptor fluid: dimethyl sulfoxide:isopropyl alcohol:water 30:30:40 v:v:v, square root of time (hr) 2.83 (8 h)
  amount of xylene cyanol released: BDL
0.5% Xylene Cyanol in Petrolatum, infinite dose, receptor fluid: dimethyl sulfoxide:isopropyl alcohol:water 30:30:40 v:v:v, square root of time (hr) 3.16 (10 h)
  amount of xylene cyanol released: BDL
0.5% Xylene Cyanol in Petrolatum, infinite dose, receptor fluid: isopropyl alcohol, square root of time (hr) 0.00 (0 h, prior to dosing)
  amount of xylene cyanol released: BDL
0.5% Xylene Cyanol in Petrolatum, infinite dose, receptor fluid: isopropyl alcohol, square root of time (hr) 1.41 (2 h)
  amount of xylene cyanol released: BDL
0.5% Xylene Cyanol in Petrolatum, infinite dose, receptor fluid: isopropyl alcohol, square root of time (hr) 2.00 (4 h)
  amount of xylene cyanol released: BDL
0.5% Xylene Cyanol in Petrolatum, infinite dose, receptor fluid: isopropyl alcohol, square root of time (hr) 2.45 (6 h)
  amount of xylene cyanol released: BDL
0.5% Xylene Cyanol in Petrolatum, infinite dose, receptor fluid: isopropyl alcohol, square root of time (hr) 2.83 (8 h)
  amount of xylene cyanol released: BDL
0.5% Xylene Cyanol in Petrolatum, infinite dose, receptor fluid: isopropyl alcohol, square root of time (hr) 3.16 (10 h)
  amount of xylene cyanol released: BDL
0.5% Xylene Cyanol in Petrolatum, infinite dose, receptor fluid: water, amount released vs square root of time
  Slope (release rate): BDL
0.5% Xylene Cyanol in Petrolatum, infinite dose, receptor fluid: water, square root of time (hr) 0.00 (0 h, prior to dosing)
  amount of xylene cyanol released: BDL
0.5% Xylene Cyanol in Petrolatum, infinite dose, receptor fluid: water, square root of time (hr) 1.41 (2 h)
  amount of xylene cyanol released: BDL
0.5% Xylene Cyanol in Petrolatum, infinite dose, receptor fluid: water, square root of time (hr) 2.00 (4 h)
  amount of xylene cyanol released: BDL
0.5% Xylene Cyanol in Petrolatum, infinite dose, receptor fluid: water, square root of time (hr) 2.45 (6 h)
  amount of xylene cyanol released: BDL
0.5% Xylene Cyanol in Petrolatum, infinite dose, receptor fluid: water, square root of time (hr) 2.83 (8 h)
  amount of xylene cyanol released: BDL
0.5% Xylene Cyanol in Petrolatum, infinite dose, receptor fluid: water, square root of time (hr) 3.16 (10 h)
  amount of xylene cyanol released: BDL
Biphasic receptor fluid 1-butanol:1-octanol:water 20:30:50 v:v:v
  amount of xylene cyanol released into the water phase: high amount
Biphasic receptor fluid 1-hexanol:1-octanol:water 25:25:50 v:v:v
  amount of xylene cyanol released into the water phase: high amount
Biphasic receptor fluid 1-hexanol:water 50:50 v:v
  amount of xylene cyanol released into the water phase: high amount
Biphasic receptor fluid 1-octanol:PEG 400:water 40:20:40 v:v:v
  amount of xylene cyanol released into the water phase: higher amount
Biphasic receptor fluid 1-octanol:ethanol:water 40:20:40 v:v:v
  amount of xylene cyanol released into the water phase: higher amount
Biphasic receptor fluid 1-octanol:glycerin:water 40:20:40 v:v:v
  amount of xylene cyanol released into the water phase: higher amount
Biphasic receptor fluid 1-octanol:isopropanol:water 40:20:40 v:v:v
  amount of xylene cyanol released into the water phase: higher amount
Biphasic receptor fluid 1-octanol:propylene glycol:water 40:20:40 v:v:v
  amount of xylene cyanol released into the water phase: higher amount
one-phase receptor fluid: 1-octanol
  release of Xylene Cyanol into the receptor fluid: no release
one-phase receptor fluid: 1-octanol:ethanol 50:50 v:v
  release of Xylene Cyanol into the receptor fluid: no release
one-phase receptor fluid: dimethyl sulfoxide:ethanol 50:50 v:v
  release of Xylene Cyanol into the receptor fluid: no release
one-phase receptor fluid: dimethyl sulfoxide:isopropyl alcohol:water 30:30:40 v:v:v
  release of Xylene Cyanol into the receptor fluid: no release
one-phase receptor fluid: isopropyl alcohol
  release of Xylene Cyanol into the receptor fluid: no release
one-phase receptor fluid: isopropyl alcohol:water 50 to 50 in volume
  release of Xylene Cyanol into the receptor fluid: no release
one-phase receptor fluid: water
  release of Xylene Cyanol into the receptor fluid: no release

From patent US20180292376A1, “DIFFUSION CELL TESTING METHODS CONTAINING BIPHASIC RECEPTOR FLUIDS” (BUFFERAD Illinois Inc. d/b/a Zyleris PharmaTech, Inc., priority 2017, published 2018)
